# Target: SREBP-2 (Homo sapiens (Human), UniProt Q12772)
# Test: In vitro assay SREBP-2: PathHunter U2OS SREBP-2 Nuclear Translocation Cell Line, U18666A-stimulated
# Type: cell-based
# Details: PathHunter U2OS SREBP-2 nuclear translocation cells, U18666A 10 μM, overnight (16 hours)
row,SMILES,IC50 [nM]
1,"C[C@H](CCC(=O)N1CCC(O)(c2ccnnc2)CC1)[C@H]1CC[C@H]2[C@@H]3CC=C4C[C@@H](O)CC[C@]4(C)[C@H]3CC[C@]12C [Example 343, (R)-4-((3S,8S,9S,10R,13R,14S,17R)-3-hydroxy-10,13-dimethyl-2,3,4,7,8,9,10,11,12,13,14,15,16,17-tetradecahydro-1H-cyclopenta[a]phenanthren-17-yl)-1-(4-hydroxy-4-(pyridazin-4-yl)piperidin-1-yl) pentan-1-one]",1000 to 10000
2,"CON(C(=O)CC[C@@H](C)[C@H]1CC[C@H]2[C@@H]3CC=C4C[C@@H](O)CC[C@]4(C)[C@H]3CC[C@]12C)C1CC1 [Example 36, (R)—N-cyclopropyl-4-((3S,8S,9S,10R,13R,14S,17R)-3-hydroxy-10,13-dimethyl-2,3,4,7,8,9,10,11,12,13,14,15,16,17-tetradecahydro-1H-cyclopenta[a]phenanthren-17-yl)-N-methoxypentanamide]",250 to 1000
3,"C[C@H](CCC(=O)N1CC[C@H](Nc2ccncn2)C1)[C@H]1CC[C@H]2[C@@H]3CC=C4C[C@@H](O)CC[C@]4(C)[C@H]3CC[C@]12C [Example 531, (R)-4-((3S,8S,9S,10R,13R,14S,17R)-3-hydroxy-10,13-dimethyl-2,3,4,7,8,9,10,11,12,13,14,15,16,17-tetradecahydro-1H-cyclopenta[a]phenanthren-17-yl)-1-((S)-3-(pyrimidin-4-ylamino)pyrrolidin-1-yl)pentan-1-one]",< 250
4,"C[C@H](CCC(=O)N1CCC(OC(=O)N(C)C)CC1)[C@H]1CC[C@H]2[C@@H]3CC=C4C[C@@H](O)CC[C@]4(C)[C@H]3CC[C@]12C [Example 418, 1-((R)-4-((3S,8S,9S,10R,13R,14S,17R)-3-hydroxy-10,13-dimethyl-2,3,4,7,8,9,10,11,12,13,14,15,16,17-tetradecahydro-1H-cyclopenta[a]phenanthren-17-yl)pentanoyl)piperidin-4-yl dimethylcarbamate]",1000 to 10000
5,"C[C@H](CCC(=O)N1CC[C@H](CO)O1)[C@H]1CC[C@H]2[C@@H]3CC=C4C[C@@H](O)CC[C@]4(C)[C@H]3CC[C@]12C [Example 43, (R)-4-((3S,8S,9S,10R,13R,14S,17R)-3-hydroxy-10,13-dimethyl-2,3,4,7,8,9,10,11,12,13,14,15,16,17-tetradecahydro-1H-cyclopenta[a]phenanthren-17-yl)-1-((R)-5-(hydroxymethyl)isoxazolidin-2-yl)pentan-1-one]",250 to 1000
6,"COC(=O)NC[C@@H](C)[C@H]1CC[C@H]2[C@@H]3CC=C4C[C@@H](O)CC[C@]4(C)[C@H]3CC[C@]12C [Example 463, methyl ((S)-2-((3S,8S,9S,10R,13S,14S,17R)-3-hydroxy-10,13-dimethyl-2,3,4,7,8,9,10,11,12,13,14,15,16,17-tetradecahydro-1H-cyclopenta[a]phenanthren-17-yl)propyl)carbamate]",250 to 1000
7,"CON(C)C(=O)CC[C@@H](C)[C@H]1CC[C@H]2[C@@H]3CC=C4C[C@@H](O)CC[C@]4(C)[C@H]3CC[C@]12C [Example 1, (R)-4-((3S,8S,9S,10R,13R,14S,17R)-3-hydroxy-10,13-dimethyl-2,3,4,7,8,9,10,11,12,13,14,15,16,17-tetradecahydro-1H-cyclopenta[a]phenanthren-17-yl)-N-methoxy-N-methylpentanamide]",< 250
8,"C[C@H](CCC(=O)N1CC[C@H](C(=O)N(C)C)C1)[C@H]1CC[C@H]2[C@@H]3CC=C4C[C@@H](O)CC[C@]4(C)[C@H]3CC[C@]12C [Example 537, (S)-1-((R)-4-((3S,8S,9S,10R,13R,14S,17R)-3-hydroxy-10,13-dimethyl-2,3,4,7,8,9,10,11,12,13,14,15,16,17-tetradecahydro-1H-cyclopenta[a]phenanthren-17-yl)pentanoyl)-N,N-dimethylpyrrolidine-3-carboxamide]",250 to 1000
9,"C[C@H](COc1ccc(CO)cn1)[C@H]1CC[C@H]2[C@@H]3CC=C4C[C@@H](O)CC[C@]4(C)[C@H]3CC[C@]12C [Example 445, (3S,8S,9S,10R,13S,14S,17R)-17-((S)-1-((5-(hydroxymethyl)pyridin-2-yl)oxy)propan-2-yl)-10,13-dimethyl-2,3,4,7,8,9,10,11,12,13,14,15,16,17-tetradecahydro-1H-cyclopenta[a]phenanthren-3-ol]",250 to 1000
10,"C[C@H](CCC(=O)N1OCCC[C@@H]1C)[C@H]1CC[C@H]2[C@@H]3CC=C4C[C@@H](O)CC[C@]4(C)[C@H]3CC[C@]12C [Example 74, (R)-4-((3S,8S,9S,10R,13R,14S,17R)-3-hydroxy-10,13-dimethyl-2,3,4,7,8,9,10,11,12,13,14,15,16,17-tetradecahydro-1H-cyclopenta[a]phenanthren-17-yl)-1-((S)-3-methyl-1,2-oxazinan-2-yl)pentan-1-one]",< 250
11,"C[C@H](CCC(=O)N1CCN(C2CC2)CC1)[C@H]1CC[C@H]2[C@@H]3CC=C4C[C@@H](O)CC[C@]4(C)[C@H]3CC[C@]12C [Example 558, (4R)-4-[(1R,3aS,3bS,7S,9aR,9bS,11aR)-7-hydroxy-9a,11a-dimethyl-1H,2H,3H,3aH,3bH,4H,6H,7H,8H,9H,9aH,9bH,10H,11H,11aH-cyclopenta[a]phenanthren-1-yl]-1-(4-cyclopropylpiperazin-1-yl)pentan-1-one]",< 250
12,"C[C@H](OC(=O)C(=O)N(C)C)[C@H]1CC[C@H]2[C@@H]3CC=C4C[C@@H](O)CC[C@]4(C)[C@H]3CC[C@]12C [Example 35, (S)-1-((3S,8S,9S,10R,13S,14S,17S)-3-hydroxy-10,13-dimethyl-2,3,4,7,8,9,10,11,12,13,14,15,16,17-tetradecahydro-1H-cyclopenta[a]phenanthren-17-yl)ethyl 2-(dimethylamino)-2-oxoacetate]",250 to 1000
13,"Cc1ccnc(OC[C@@H](C)[C@H]2CC[C@H]3[C@@H]4CC=C5C[C@@H](O)CC[C@]5(C)[C@H]4CC[C@]23C)c1 [Example 442, (1R,3aS,3bS,7S,9aR,9bS,11aS)-9a,11a-dimethyl-1-[(2S)-1-[(4-methylpyridin-2-yl)oxy]propan-2-yl]-1H,2H,3H,3aH,3bH,4H,6H,7H,8H,9H,9aH,9bH,10H,11H,11aH-cyclopenta[a]phenanthren-7-ol]",< 250
14,"C[C@H](OC(=O)N(C)C)[C@H]1CC[C@H]2[C@@H]3CC=C4C[C@@H](O)CC[C@]4(C)[C@H]3CC[C@]12C [Example 461, (1S)-1-[(1S,3aS,3bS,7S,9aR,9bS,11aS)-7-hydroxy-9a,11a-dimethyl-1H,2H,3H,3aH,3bH,4H,6H,7H,8H,9H,9aH,9bH,10H,11H,11aH-cyclopenta[a]phenanthren-1-yl]ethyl N,N-dimethylcarbamate]",250 to 1000
15,"Cc1ccc(OC[C@@H](C)[C@H]2CC[C@H]3[C@@H]4CC=C5C[C@@H](O)CC[C@]5(C)[C@H]4CC[C@]23C)nc1 [Example 441, (3S,8S,9S,10R,13S,14S,17R)-10,13-dimethyl-17-((S)-1-((5-methylpyridin-2-yl)oxy)propan-2-yl)-2,3,4,7,8,9,10,11,12,13,14,15,16,17-tetradecahydro-1H-cyclopenta[a]phenanthren-3-ol]",250 to 1000
16,"C[C@H](CCC(=O)N(C)CCc1ccncc1)[C@H]1CC[C@H]2[C@@H]3CC=C4C[C@@H](O)CC[C@]4(C)[C@H]3CC[C@]12C [Example 544, (R)-4-((3S,8S,9S,10R,13R,14S,17R)-3-hydroxy-10,13-dimethyl-2,3,4,7,8,9,10,11,12,13,14,15,16,17-tetradecahydro-1H-cyclopenta[a]phenanthren-17-yl)-N-methyl-N-(2-(pyridin-4-yl)ethyl)pentanamide]",< 250
17,"C[C@H](CCC(=O)N1CCC(N2CCOC(C)(C)C2=O)CC1)[C@H]1CC[C@H]2[C@@H]3CC=C4C[C@@H](O)CC[C@]4(C)[C@H]3CC[C@]12C [Example 524, 4-(1-((R)-4-((3S,8S,9S,10R,13R,14S,17R)-3-hydroxy-10,13-dimethyl-2,3,4,7,8,9,10,11,12,13,14,15,16,17-tetradecahydro-1H-cyclopenta[a]phenanthren-17-yl)pentanoyl)piperidin-4-yl)-2,2-dimethylmorpholin-3-one]",250 to 1000
18,"C[C@H](CCC(=O)N1CCC(CN2CCOC(C)(C)C2=O)CC1)[C@H]1CC[C@H]2[C@@H]3CC=C4C[C@@H](O)CC[C@]4(C)[C@H]3CC[C@]12C [Example 522, 4-({1-[(4R)-4-[(1R,3aS,3bS,7S,9aR,9bS,11aR)-7-hydroxy-9a,11a-dimethyl-1H,2H,3H,3aH,3bH,4H,6H,7H,8H,9H,9aH,9bH,10H,11H,11aH-cyclopenta[a]phenanthren-1-yl]pentanoyl]piperidin-4-yl}methyl)-2,2-dimethylmorpholin-3-one]",< 250
19,"C=CCN1C[C@H]2CON(C(=O)CC[C@@H](C)[C@H]3CC[C@H]4[C@@H]5CC=C6C[C@@H](O)CC[C@]6(C)[C@H]5CC[C@]34C)[C@H]2C1 [Example 45, (R)-1-((3aR,6aR)-5-allylhexahydro-1H-pyrrolo[3,4-c]isoxazol-1-yl)-4-((3S,8S,9S,10R,13R,14S,17R)-3-hydroxy-10,13-dimethyl-2,3,4,7,8,9,10,11,12,13,14,15,16,17-tetradecahydro-1H-cyclopenta[a]phenanthren-17-yl)pentan-1-one]",250 to 1000
20,"C[C@H](CCC(=O)N1CCC(C(NS(C)(=O)=O)C(F)(F)F)CC1)[C@H]1CC[C@H]2[C@@H]3CC=C4C[C@@H](O)CC[C@]4(C)[C@H]3CC[C@]12C (stereo partly drawn) [Example 476, N-(2,2,2-trifluoro-1-(1-((R)-4-((3S,8S,9S,10R,13R,14S,17R)-3-hydroxy-10,13-dimethyl-2,3,4,7,8,9,10,11,12,13,14,15,16,17-tetradecahydro-1H-cyclopenta[a]phenanthren-17-yl)pentanoyl)piperidin-4-yl)ethyl)methanesulfonamide]",< 250
21,"CCC1(O)CCN(C(=O)CCC[C@H]2CC[C@H]3[C@@H]4CC=C5C[C@@H](O)CC[C@]5(C)[C@H]4CC[C@]23C)CC1 [Example 370, 1-(4-ethyl-4-hydroxypiperidin-1-yl)-4-((3S,8S,9S,10R,13R,14S,17S)-3-hydroxy-10,13-dimethyl-2,3,4,7,8,9,10,11,12,13,14,15,16,17-tetradecahydro-1H-cyclopenta[a]phenanthren-17-yl)butan-1-one]",250 to 1000
